Source: patent publication US11053204B2, “Pyrimidinyloxy benzene derivatives as herbicides” (FMC Corporation, priority 2015, dated 2021)

How the values were obtained:
Assay type in all cases: in vivo
[1] = system: blackgrass (Alopecurus myosuroides); assay: Test C preemergence, plant response rating; conditions: Preemergence
How it was run: (§1)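 Preemergence: seeds sown in loam–sand blend or silt loam and sprayed with test chemicals in a non-phytotoxic surfactant-containing solvent. Postemergence: potted plants at 2–18 cm (1–4-leaf stage) sprayed with the same formulation. After 13–15 d in greenhouse, visual rating versus controls on 0 (no effect) to 100 (complete control) scale.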

corn (Zea mays) = assay: Test C preemergence, plant response rating; conditions: Preemergence
How it was run: as §1

[2] = system: crabgrass, large (large crabgrass, Digitaria sanguinalis); assay: Test C preemergence, plant response rating; conditions: Preemergence
How it was run: as §1

[3] = system: foxtail, giant (giant foxtail, Setaria faberii); assay: Test C preemergence, plant response rating; conditions: Preemergence
How it was run: as §1

[4] = system: lambsquarters (Chenopodium album); assay: Test C preemergence, plant response rating; conditions: Preemergence
How it was run: as §1

[5] = system: morningglory (Ipomoea coccinea); assay: Test C preemergence, plant response rating; conditions: Preemergence
How it was run: as §1

[6] = system: nutsedge, yellow (yellow nutsedge, Cyperus esculentus); assay: Test C preemergence, plant response rating; conditions: Preemergence
How it was run: as §1

[7] = system: oilseed rape (Brassica napus); assay: Test C preemergence, plant response rating; conditions: Preemergence
How it was run: as §1

[8] = system: ragweed (common ragweed, Ambrosia elatior); assay: Test C preemergence, plant response rating; conditions: Preemergence
How it was run: as §1

[9] = system: ryegrass, Italian (Italian ryegrass, Lolium multiflorum); assay: Test C preemergence, plant response rating; conditions: Preemergence
How it was run: as §1

soybean (Glycine max) = assay: Test C preemergence, plant response rating; conditions: Preemergence
How it was run: as §1

[10] = system: velvetleaf (Abutilon theophrasti); assay: Test C preemergence, plant response rating; conditions: Preemergence
How it was run: as §1

[11] = system: waterhemp (common waterhemp, Amaranthus rudis); assay: Test C preemergence, plant response rating; conditions: Preemergence
How it was run: as §1

[12] = system: wheat (winter wheat, Triticum aestivum); assay: Test C preemergence, plant response rating; conditions: Preemergence
How it was run: as §1

[13] = system: barnyardgrass (Echinochloa crus-galli); assay: Test C postemergence, plant response rating; conditions: for Plant response rating, Barnyardgrass: scale 0 to 100; for Barnyardgrass plant response rating: scale 0 to 100 (0 no effect, 100 complete control)
How it was run: as §1

[14] = system: blackgrass (Alopecurus myosuroides); assay: Test C postemergence, plant response rating; conditions: for Plant response rating, Blackgrass: scale 0 to 100; for Blackgrass plant response rating: scale 0 to 100 (0 no effect, 100 complete control)
How it was run: as §1

[15] = system: foxtail, giant (giant foxtail, Setaria faberii); assay: Test C postemergence, plant response rating; conditions: for Plant response rating, Foxtail, Giant: scale 0 to 100; for Foxtail, Giant plant response rating: scale 0 to 100 (0 no effect, 100 complete control)
How it was run: as §1

[16] = system: morningglory (Ipomoea coccinea); assay: Test C postemergence, plant response rating; conditions: for Plant response rating, Morningglory: scale 0 to 100; for Morningglory plant response rating: scale 0 to 100 (0 no effect, 100 complete control)
How it was run: as §1

[17] = system: oilseed rape (Brassica napus); assay: Test C postemergence, plant response rating; conditions: for Plant response rating, Oilseed Rape: scale 0 to 100; for Oilseed Rape plant response rating: scale 0 to 100 (0 no effect, 100 complete control)
How it was run: as §1

[18] = system: velvetleaf (Abutilon theophrasti); assay: Test C postemergence, plant response rating; conditions: for Plant response rating, Velvetleaf: scale 0 to 100; for Velvetleaf plant response rating: scale 0 to 100 (0 no effect, 100 complete control)
How it was run: as §1

[19] = system: wheat (winter wheat, Triticum aestivum); assay: Test C postemergence, plant response rating; conditions: for Plant response rating, Wheat: scale 0 to 100; for Wheat plant response rating: scale 0 to 100 (0 no effect, 100 complete control)
How it was run: as §1

## O=C(OCCC(F)(F)F)c1c(Br)cccc1Oc1ncc(Br)cn1 [Compound 33]
[1]; 62 g ai/ha, scale of 0 to 100
  Plant response rating, Blackgrass: 70
[1]; 125 g ai/ha, scale of 0 to 100
  Plant response rating, Blackgrass: 90
[1]; 16 g ai/ha, scale 0 to 100
  Plant response rating, Blackgrass: 0
[1]; 31 g ai/ha, scale 0 to 100
  Plant response rating, Blackgrass: 10
Corn (Zea mays); 62 g ai/ha, scale of 0 to 100
  Plant response rating, Corn: 10
Corn (Zea mays); 125 g ai/ha, scale of 0 to 100
  Plant response rating, Corn: 10
Corn (Zea mays); 16 g ai/ha, scale 0 to 100
  Plant response rating, Corn: 0
Corn (Zea mays); 31 g ai/ha, scale 0 to 100
  Plant response rating, Corn: 0
[2]; 62 g ai/ha, scale of 0 to 100
  Plant response rating, Crabgrass, Large: 100
[2]; 125 g ai/ha, scale of 0 to 100
  Plant response rating, Crabgrass, Large: 100
[2]; 16 g ai/ha, scale 0 to 100
  Plant response rating, Crabgrass, Large: 75
[2]; 31 g ai/ha, scale 0 to 100
  Plant response rating, Crabgrass, Large: 98
[3]; 62 g ai/ha, scale of 0 to 100
  Plant response rating, Foxtail, Giant: 98
[3]; 125 g ai/ha, scale of 0 to 100
  Plant response rating, Foxtail, Giant: 100
[3]; 16 g ai/ha, scale 0 to 100
  Plant response rating, Foxtail, Giant: 60
[3]; 31 g ai/ha, scale 0 to 100
  Plant response rating, Foxtail, Giant: 95
[4]; 125 g ai/ha, scale of 0 to 100
  Plant response rating, Lambsquarters: 85
[4]; 16 g ai/ha, scale 0 to 100
  Plant response rating, Lambsquarters: 25
[4]; 31 g ai/ha, scale 0 to 100
  Plant response rating, Lambsquarters: 60
[4]; 62 g ai/ha, scale 0 to 100
  Plant response rating, Lambsquarters: 80
[5]; 125 g ai/ha, scale of 0 to 100
  Plant response rating, Morningglory: 40
[5]; 16 g ai/ha, scale 0 to 100
  Plant response rating, Morningglory: 0
[5]; 31 g ai/ha, scale 0 to 100
  Plant response rating, Morningglory: 0
[5]; 62 g ai/ha, scale 0 to 100
  Plant response rating, Morningglory: 25
[6]; 125 g ai/ha, scale of 0 to 100
  Plant response rating, Nutsedge, Yellow: 5
[6]; 16 g ai/ha, scale 0 to 100
  Plant response rating, Nutsedge, Yellow: 0
[6]; 31 g ai/ha, scale 0 to 100
  Plant response rating, Nutsedge, Yellow: 0
[6]; 62 g ai/ha, scale 0 to 100
  Plant response rating, Nutsedge, Yellow: 5
[7]; 125 g ai/ha, scale of 0 to 100
  Plant response rating, Oilseed Rape: 100
[7]; 16 g ai/ha, scale 0 to 100
  Plant response rating, Oilseed Rape: 50
[7]; 31 g ai/ha, scale 0 to 100
  Plant response rating, Oilseed Rape: 80
[7]; 62 g ai/ha, scale 0 to 100
  Plant response rating, Oilseed Rape: 85
[8]; 125 g ai/ha, scale of 0 to 100
  Plant response rating, Ragweed: 50
[8]; 16 g ai/ha, scale 0 to 100
  Plant response rating, Ragweed: 55
[8]; 31 g ai/ha, scale 0 to 100
  Plant response rating, Ragweed: 35
[8]; 62 g ai/ha, scale 0 to 100
  Plant response rating, Ragweed: 40
[9]; 125 g ai/ha, scale of 0 to 100
  Plant response rating, Ryegrass, Italian: 85
[9]; 16 g ai/ha, scale 0 to 100
  Plant response rating, Ryegrass, Italian: 0
[9]; 31 g ai/ha, scale 0 to 100
  Plant response rating, Ryegrass, Italian: 30
[9]; 62 g ai/ha, scale 0 to 100
  Plant response rating, Ryegrass, Italian: 30
Soybean (Glycine max); 125 g ai/ha, scale of 0 to 100
  Plant response rating, Soybean: 30
Soybean (Glycine max); 16 g ai/ha, scale 0 to 100
  Plant response rating, Soybean: 15
[10]; 125 g ai/ha, scale of 0 to 100
  Plant response rating, Velvetleaf: 100
[10]; 16 g ai/ha, scale 0 to 100
  Plant response rating, Velvetleaf: 5
[10]; 31 g ai/ha, scale 0 to 100
  Plant response rating, Velvetleaf: 30
[10]; 62 g ai/ha, scale 0 to 100
  Plant response rating, Velvetleaf: 55
[11]; 125 g ai/ha, scale of 0 to 100
  Plant response rating, Waterhemp: 100
[11]; 16 g ai/ha, scale 0 to 100
  Plant response rating, Waterhemp: 100
[11]; 31 g ai/ha, scale 0 to 100
  Plant response rating, Waterhemp: 100
[11]; 62 g ai/ha, scale 0 to 100
  Plant response rating, Waterhemp: 100
[12]; 125 g ai/ha, scale of 0 to 100
  Plant response rating, Wheat: 5
[12]; 16 g ai/ha, scale 0 to 100
  Plant response rating, Wheat: 0
[12]; 31 g ai/ha, scale 0 to 100
  Plant response rating, Wheat: 0
[12]; 62 g ai/ha, scale 0 to 100
  Plant response rating, Wheat: 0
[13]; 16 g ai/ha
  Plant response rating, Barnyardgrass: 5
[13]; 31 g ai/ha
  Plant response rating, Barnyardgrass: 5
[13]; 62 g ai/ha
  Barnyardgrass plant response rating: 10
[13]; 125 g ai/ha
  Barnyardgrass plant response rating: 25
[14]; 16 g ai/ha
  Plant response rating, Blackgrass: 5
[14]; 31 g ai/ha
  Plant response rating, Blackgrass: 5
[14]; 62 g ai/ha
  Blackgrass plant response rating: 10
[14]; 125 g ai/ha
  Blackgrass plant response rating: 20
[15]; 16 g ai/ha
  Plant response rating, Foxtail, Giant: 5
[15]; 31 g ai/ha
  Plant response rating, Foxtail, Giant: 10
[15]; 62 g ai/ha
  Foxtail, Giant plant response rating: 10
[15]; 125 g ai/ha
  Foxtail, Giant plant response rating: 20
[16]; 16 g ai/ha
  Plant response rating, Morningglory: 55
[16]; 31 g ai/ha
  Plant response rating, Morningglory: 65
[16]; 62 g ai/ha
  Morningglory plant response rating: 75
[16]; 125 g ai/ha
  Morningglory plant response rating: 65
[17]; 16 g ai/ha
  Plant response rating, Oilseed Rape: 35
[17]; 31 g ai/ha
  Plant response rating, Oilseed Rape: 45
[17]; 62 g ai/ha
  Oilseed Rape plant response rating: 55
[17]; 125 g ai/ha
  Oilseed Rape plant response rating: 95
[18]; 16 g ai/ha
  Plant response rating, Velvetleaf: 25
[18]; 31 g ai/ha
  Plant response rating, Velvetleaf: 50
[18]; 62 g ai/ha
  Velvetleaf plant response rating: 65
[18]; 125 g ai/ha
  Velvetleaf plant response rating: 75
[19]; 16 g ai/ha
  Plant response rating, Wheat: 0
[19]; 31 g ai/ha
  Plant response rating, Wheat: 0
[19]; 62 g ai/ha
  Wheat plant response rating: 0
[19]; 125 g ai/ha
  Wheat plant response rating: 5
